Results: patent US12077503B2, “Substituted cyclic amides and their use as herbicides” (FMC CORPORATION, priority 2015, dated 2024)

Legend:
Format in all cases: in vivo
[1] = system: giant foxtail (Setaria faberii); test: Test A postemergence; conditions: Setaria faberi, post-emergence, 240 h, Postemergence, read-out: Plant response rating, Foxtail, Giant; for pest or weed control at 125 g/ha: 125 g ai/ha, visual injury after approx. 10 d, 0 to 100 scale, 0 no effect, 100 complete control; for pest or weed control at 500 g/ha: 500 g ai/ha, visual injury, 0 to 100 scale (0 no effect, 100 complete control), approx. 10 d
Procedure, shortened: (§1)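 Visual injury, scored on a 0–100 scale relative to untreated controls, was recorded about 10 d after application. Treatments were a preemergence soil spray over planted seeds or a postemergence spray on plants at the one- to two-leaf stage, 2 to 10 cm tall, all in loam soil–sand blend in the greenhouse.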

corn (Zea mays) = test: Test A postemergence; conditions: Zea mays, post-emergence, 240 h, Postemergence; for Corn plant response rating (crop injury, 0 = no effect, 100 = complete kill) at 125 g/ha: 125 g ai/ha, visual injury after approx. 10 d, 0 to 100 scale, 100 complete control; for Corn plant response rating (crop injury, 0 = no effect, 100 = complete kill) at 500 g/ha: 500 g ai/ha, visual injury, 0 to 100 scale (0 no effect, 100 complete control), approx. 10 d
Procedure, shortened: as §1

[2] = system: wheat (Triticum aestivum); test: Test A postemergence; conditions: Triticum aestivum, post-emergence, 240 h, Postemergence, read-out: Plant response rating, Wheat; for plant injury at 125 g/ha: 125 g ai/ha, visual injury after approx. 10 d, 0 to 100 scale, 0 no effect, 100 complete control; for plant injury at 500 g/ha: 500 g ai/ha, visual injury, 0 to 100 scale (0 no effect, 100 complete control), approx. 10 d
Procedure, shortened: as §1

[3] = system: Galium (catchweed bedstraw, Galium aparine); test: Test A postemergence; conditions: Galium, post-emergence, 240 h, Postemergence, read-out: Plant response rating, Galium; for pest or weed control at 125 g/ha: 125 g ai/ha, visual injury after approx. 10 d, 0 to 100 scale, 0 no effect, 100 complete control; for pest or weed control at 500 g/ha: 500 g ai/ha, visual injury, 0 to 100 scale (0 no effect, 100 complete control), approx. 10 d
Procedure, shortened: as §1

[4] = system: blackgrass (Alopecurus myosuroides); test: Test A postemergence; conditions: Alopecurus myosuroides, post-emergence, 240 h, Postemergence, read-out: Plant response rating, Blackgrass; for pest or weed control at 125 g/ha: 125 g ai/ha, visual injury after approx. 10 d, 0 to 100 scale, 0 no effect, 100 complete control; for pest or weed control at 500 g/ha: 500 g ai/ha, visual injury, 0 to 100 scale (0 no effect, 100 complete control), approx. 10 d
Procedure, shortened: as §1

[5] = system: ryegrass, Italian (Italian ryegrass, Lolium multiflorum); test: Test A postemergence; conditions: Lolium multiflorum, post-emergence, 240 h, Postemergence, read-out: Plant response rating, Ryegrass, Italian; for pest or weed control at 125 g/ha: 125 g ai/ha, visual injury after approx. 10 d, 0 to 100 scale, 0 no effect, 100 complete control; for pest or weed control at 500 g/ha: 500 g ai/ha, visual injury, 0 to 100 scale (0 no effect, 100 complete control), approx. 10 d
Procedure, shortened: as §1

[6] = system: pigweed (Amaranthus retroflexus); test: Test A postemergence; conditions: Amaranthus retroflexus, post-emergence, 240 h, Postemergence, read-out: Plant response rating, Pigweed; for pest or weed control at 125 g/ha: 125 g ai/ha, visual injury after approx. 10 d, 0 to 100 scale, 0 no effect, 100 complete control; for pest or weed control at 500 g/ha: 500 g ai/ha, visual injury, 0 to 100 scale (0 no effect, 100 complete control), approx. 10 d
Procedure, shortened: as §1

Kochia (Kochia scoparia) [7] = test: Test A postemergence; conditions: Bassia scoparia, post-emergence, 240 h, Postemergence, read-out: Plant response rating, Kochia; for pest or weed control at 125 g/ha: 125 g ai/ha, visual injury after approx. 10 d, 0 to 100 scale, 0 no effect, 100 complete control; for pest or weed control at 500 g/ha: 500 g ai/ha, visual injury, 0 to 100 scale (0 no effect, 100 complete control), approx. 10 d
Procedure, shortened: as §1

[8] = system: barnyardgrass (Echinochloa crus-galli); test: Test A postemergence; conditions: Echinochloa crus-galli, post-emergence, 240 h, Postemergence, read-out: Plant response rating, Barnyardgrass; for pest or weed control at 125 g/ha: 125 g ai/ha, visual injury after approx. 10 d, 0 to 100 scale, 0 no effect, 100 complete control; for pest or weed control at 500 g/ha: 500 g ai/ha, visual injury, 0 to 100 scale (0 no effect, 100 complete control), approx. 10 d
Procedure, shortened: as §1

[9] = system: ragweed (common ragweed, Ambrosia elatior); test: Test A postemergence; conditions: Ambrosia artemisiifolia, post-emergence, 240 h, Postemergence, read-out: Plant response rating, Ragweed; for pest or weed control at 125 g/ha: 125 g ai/ha, visual injury after approx. 10 d, 0 to 100 scale, 0 no effect, 100 complete control; for pest or weed control at 500 g/ha: 500 g ai/ha, visual injury, 0 to 100 scale (0 no effect, 100 complete control), approx. 10 d
Procedure, shortened: as §1

[10] = system: giant foxtail (Setaria faberii); test: Test A preemergence; conditions: Setaria faberi, pre-emergence, 240 h, 0 to 100 scale (0 no effect, 100 complete control), read-out: Plant response rating, Foxtail, Giant; for pest or weed control at 500 g/ha: 500 g ai/ha, preemergence; for pest or weed control at 125 g/ha: Preemergence, 125 g ai/ha
Procedure, shortened: as §1

[11] = system: ryegrass, Italian (Italian ryegrass, Lolium multiflorum); test: Test A preemergence; conditions: Lolium multiflorum, pre-emergence, 240 h, 0 to 100 scale (0 no effect, 100 complete control), read-out: Plant response rating, Ryegrass, Italian; for pest or weed control at 500 g/ha: 500 g ai/ha, preemergence; for pest or weed control at 125 g/ha: Preemergence, 125 g ai/ha
Procedure, shortened: as §1

Kochia (Kochia scoparia) [12] = test: Test A preemergence; conditions: Bassia scoparia, pre-emergence, 240 h, 0 to 100 scale (0 no effect, 100 complete control), read-out: Plant response rating, Kochia; for pest or weed control at 500 g/ha: 500 g ai/ha, preemergence; for pest or weed control at 125 g/ha: Preemergence, 125 g ai/ha
Procedure, shortened: as §1

[13] = system: barnyardgrass (Echinochloa crus-galli); test: Test A preemergence; conditions: Echinochloa crus-galli, pre-emergence, 240 h, 0 to 100 scale (0 no effect, 100 complete control), read-out: Plant response rating, Barnyardgrass; for pest or weed control at 500 g/ha: 500 g ai/ha, preemergence; for pest or weed control at 125 g/ha: Preemergence, 125 g ai/ha
Procedure, shortened: as §1

[14] = system: ragweed (common ragweed, Ambrosia elatior); test: Test A preemergence; conditions: Ambrosia artemisiifolia, pre-emergence, 240 h, 0 to 100 scale (0 no effect, 100 complete control), read-out: Plant response rating, Ragweed; for pest or weed control at 500 g/ha: 500 g ai/ha, preemergence; for pest or weed control at 125 g/ha: Preemergence, 125 g ai/ha
Procedure, shortened: as §1

Row | Structure (SMILES) | pest or weed control at 125 g/ha [1] [%] | pest or weed control at 500 g/ha [1] [%] | Corn plant response rating (crop injury, 0 = no effect, 100 = complete kill) at 125 g/ha (corn (Zea mays)) [%] | Corn plant response rating (crop injury, 0 = no effect, 100 = complete kill) at 500 g/ha (corn (Zea mays)) [%] | plant injury at 125 g/ha [2] [%] | plant injury at 500 g/ha [2] [%] | pest or weed control at 125 g/ha [3] [%] | pest or weed control at 500 g/ha [3] [%] | pest or weed control at 125 g/ha [4] [%] | pest or weed control at 500 g/ha [4] [%] | pest or weed control at 125 g/ha [5] [%] | pest or weed control at 500 g/ha [5] [%] | pest or weed control at 125 g/ha [6] [%] | pest or weed control at 500 g/ha [6] [%] | pest or weed control at 125 g/ha (Kochia (Kochia scoparia) [7]) [%] | pest or weed control at 500 g/ha (Kochia (Kochia scoparia) [7]) [%] | pest or weed control at 125 g/ha [8] [%] | pest or weed control at 500 g/ha [8] [%] | pest or weed control at 125 g/ha [9] [%] | pest or weed control at 500 g/ha [9] [%] | also measured
1 | CN1C[C@H](c2cccc(C(F)(F)F)c2)[C@@H](C(=O)Nc2ccc(F)c(F)c2F)C1=O [Compound 1389] | 80 | 80 | 90 | 90 | 60 | 70 | 60 | 70 | 50 | 50 | 70 | 80 | 30 | 70 | 60 | 80 | 90 | 100 | 0 | 20 | pest or weed control at 500 g/ha [10]: 100%; pest or weed control at 125 g/ha [10]: 100%; pest or weed control at 500 g/ha [11]: 90%; pest or weed control at 125 g/ha [11]: 80%; pest or weed control at 500 g/ha (Kochia (Kochia scoparia) [12]): 90%; pest or weed control at 125 g/ha (Kochia (Kochia scoparia) [12]): 70%; pest or weed control at 500 g/ha [13]: 100%; pest or weed control at 125 g/ha [13]: 100%; pest or weed control at 500 g/ha [14]: 30%; pest or weed control at 125 g/ha [14]: 0%
2 | O=C1NC[C@H](c2nccc(C(F)(F)F)n2)[C@H]1C(=O)Nc1cccc(F)c1F [Compound 1392] | 0 | 30 | 0 | 20 | 0 | 30 | 0 | 0 | 0 | 0 | 0 | 0 | 0 | 0 | 0 | 0 | 0 | 40 | 0 | 0 | pest or weed control at 500 g/ha [10]: 60%; pest or weed control at 125 g/ha [10]: 0%; pest or weed control at 500 g/ha [11]: 0%; pest or weed control at 125 g/ha [11]: 0%; pest or weed control at 500 g/ha (Kochia (Kochia scoparia) [12]): 0%; pest or weed control at 125 g/ha (Kochia (Kochia scoparia) [12]): 0%; pest or weed control at 500 g/ha [13]: 60%; pest or weed control at 125 g/ha [13]: 0%; pest or weed control at 500 g/ha [14]: 0%; pest or weed control at 125 g/ha [14]: 0%
